The source of these data is US20110288106A1, “ADENINE RECEPTOR LIGANDS” (Rheinische Friedrich-Wilhelms-Universitaet Bonn …, priority 2008, published 2011).

The structures appear in SMILES notation. Counter-ions that a name gives are not always drawn.

Data set [1] has as its target T1, rAde1R (Rattus norvegicus, UniProt Q7TN49).
T1 construct: expressed in transfected cells; host or cells: 1321N1 human astrocytoma cells
T1 sequence (Q7TN49 1-304): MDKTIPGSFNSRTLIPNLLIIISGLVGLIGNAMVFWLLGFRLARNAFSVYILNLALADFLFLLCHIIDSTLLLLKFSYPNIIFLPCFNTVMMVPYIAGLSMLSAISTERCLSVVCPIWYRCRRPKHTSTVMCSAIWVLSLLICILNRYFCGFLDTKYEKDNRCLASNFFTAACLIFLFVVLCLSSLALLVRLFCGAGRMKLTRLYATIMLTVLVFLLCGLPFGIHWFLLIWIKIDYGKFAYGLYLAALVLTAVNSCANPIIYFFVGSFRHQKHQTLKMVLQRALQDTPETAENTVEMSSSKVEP
To be noted: literature, Gorzalka et al. 2005; cited from earlier work.

For another data set, the system named is Human adenine receptor. Nature of the data set: Radioligand binding assay, [3H]adenine competition, HEK293 cell membrane preparations. To be noted: HEK293 cell membranes, vs. 10 nM [3H]adenine, mean ± SEM. The procedure: (§1) Competition assays with [8-^3H]adenine (27 Ci/mmol; GE Healthcare) were carried out as described previously (Gorzalka et al., Mol. Pharmacol. 2005, 67, 955-964). In brief, 50 μg of rat cortical membrane preparations or 100 μg of protein (HEK293 (human embryonic kidney) cell membrane preparations) was incubated with 10 nM [8^3H]adenine in 50 mM Tris-HCl buffer, pH 7.4, in a total volume of 200 μl. Inhibition curves were determined using 6 to 9 different concentrations of selected adenine derivative. Three separate experiments were performed each in triplicate. Nonspecific binding was determined by using 100 μM adenine. Incubations were carried out for 1 h at room temperature and terminated by rapid filtration through GF/B glass fiber filters (Whatman, Dassel, Germany). Filters were washed three times with ice-cold 50 mM Tris-HCl buffer, pH 7.4, 3 ml each. Filter-bound radioactivity was measured by liquid scintillation counting.
(§2) Data points represent means±SEM of three separate experiments each performed in triplicate.

Data set [2] deals with T1, rAde1R. The data set is described as follows: cAMP-dependent luciferase assay, inhibition of isoproterenol-stimulated cAMP accumulation. In kind it is cell-based. To be noted: for effect on isoproterenol-induced cAMP accumulation: 3 nM isoproterenol, n=3. The procedure:
1321N1 cells stably expressing the rAde1R were cultured in DMEM supplemented with 10% (v/v) FCS, L-glutamine (2 mM), penicillin (100 U/ml), streptomycin (100 U/ml) and 400 μg/ml G 418 at 37° C. under a humidified atmosphere containing 5% CO2. Cells were cultured in 75 cm^2 flasks (3.2×10^5) for 24 h without antibiotics so that they were 90-95% confluent before transfection. The cAMP responsive reporter plasmid (pCER-luc) or serum response element (pSRE-luc) was transfected into 1321N1 cells expressing rat adenine receptors using Lipofectamine 2000 as a transfection reagent.
Reporter cells were seeded at a density of […] cells/well in a 24-well plate 18-20 hr prior to assay. After removal of culture medium, cells were washed twice with Hanks' balanced salt solution (containing 20 mM HEPES, pH 7.3). Adenine and selected adenine derivatives were diluted in Hanks' balanced salt solution containing 3 nM isoproterenol and then incubated with reporter cells in the same buffer for 3 h at 37° C. The reaction was stopped by removal of the reaction buffer and the luciferase expression was determined using Bright-Glo™ Luciferase assay system (Promega) as described in the kit protocol. Plates were shaken for 2 min to ensure complete lysis of cells. Then the total volume from each well was transferred to a white 96-well plate (Greiner bio-one). Luminescence was determined using a NOVOstar microplate reader (BMG labtech); each well was counted for 2 s at 20° C.
On the technique in general: Cyclic AMP is a second messenger, typically raised through Gs and lowered through Gi signalling.

Another data set has as its target T2, Rat adenine receptor (Rattus norvegicus, UniProt Q7TN49).
T2 construct: 50 μg of rat cortical membrane preparations; from tissue; host or cells: rat brain cortex membranes
T2 sequence (Q7TN49 1-304): T1 sequence (Q7TN49 1-304)
The data set is described as follows: Radioligand binding assay, [3H]adenine competition, rat cortical membrane preparations. To be noted: rat cortex membranes, vs. 10 nM [3H]adenine, mean ± SEM. The procedure: as §1, §2

Where [3] appears, read: 10 μM compound, 1321N1 cells expressing rAde1R.

Regarding `Cn1cnc(N)c2ncnc1-2` [3-methyl-adenine], the “values at the rAde1R” value on rAde1R [1] is “micromolar range”.
As to `Cn1cnc2c(N)ncnc21` [9-methyl-adenine], the “values at the rAde1R” value at rAde1R [1] was “micromolar range”.
Regarding `O=C(CCNCc1ccccc1)Nc1ncnc2[nH]cnc12` [Example 12, 3-Benzyl-amino-N(9H-purin-6-yl)propionamide dihydrochloride], the Ki in the data set with Human adenine receptor turned out to be 3.27 ± 1.23 µM; at Rat adenine receptor it was 0.852 ± 0.131 µM. Also, the “effect on isoproterenol-induced cAMP accumulation” value at rAde1R [2] (setting [3]) was “adenine receptor agonists”.
`CCCN(CCC(=O)Nc1ncnc2[nH]cnc12)C(=O)OC(C)(C)C` [Example 3, 3-(tert-Butyloxycarbonyl-propyl-amino)-N(9H-purin-6-yl)propionamide]: the melting point turned out to be 205 °C. Besides, in the data set with Human adenine receptor, the Ki was not below 100 µM. The same molecule yielded a Ki at Rat adenine receptor of 11.8 ± 0.8 µM.
In the case of `CCCNCCC(=O)Nc1ncnc2[nH]cnc12` [Example 11, 3-Propyl-amino-N(9H-purin-6-yl)propionamide dihydrochloride], the Ki in the data set on Human adenine receptor turned out to be 6.85 ± 2.17 µM; at Rat adenine receptor, 1.29 ± 0.24 µM.
The molecule `CNCCC(=O)Nc1ncnc2[nH]cnc12` (as salt: hydrochloride) [Example 9, 3-Methyl-amino-N(9H-purin-6-yl)propionamide dihydrochloride] came in with a melting point of 213 °C.
The same measure, in the same setting: then `CCNCCC(=O)Nc1ncnc2[nH]cnc12` (as salt: hydrochloride) [Example 10, 3-Ethyl-amino-N(9H-purin-6-yl)propionamide dihydrochloride], with 216 °C.
`O=C(CCNCCc1ccccc1)Nc1ncnc2[nH]cnc12` [Example 13, 3-Phenethyl-amino-N(9H-purin-6-yl)propionamide dihydrochloride]: the Ki in the data set with Human adenine receptor is 6.93 ± 0.83 µM; on Rat adenine receptor, 2.12 ± 0.07 µM.
Molecule `CCN(CCC(=O)Nc1ncnc2[nH]cnc12)C(=O)OC(C)(C)C` [Example 2, 3-(tert-Butyloxycarbonyl-ethyl-amino)-N(9H-purin-6-yl)propionamide] showed a melting point of 198 °C. This molecule also displayed a Ki with Human adenine receptor of 7.7 ± 2.4 µM. Further, affinity on Rat adenine receptor was put at a Ki of 2.93 ± 0.4 µM.
`O=C(CCNCc1ccccc1)Nc1ncnc2[nH]cnc12` (as salt: hydrochloride) [Example 12, 3-Benzyl-amino-N(9H-purin-6-yl)propionamide dihydrochloride] registered a melting point of 197 °C.
The molecule `Cl.NCCCC(=O)Nc1ncnc2[nH]cnc12` [Example 15, 4-Amino-N(9H-purin-6-yl)butyramide hydrochloride] displayed a melting point of 199 °C. The affinity in the data set with Human adenine receptor corresponds to a Ki of 0.149 ± 0.045 µM. Further, the “effect on isoproterenol-induced cAMP accumulation” value on rAde1R [2] (setting [3]) is “adenine receptor agonists”. The molecule also yielded a Ki on Rat adenine receptor of 0.0805 ± 0.003 µM.
As for `O=C(CCNCCc1ccccc1)Nc1ncnc2[nH]cnc12` (as salt: hydrochloride) [Example 13, 3-Phenethyl-amino-N(9H-purin-6-yl)propionamide dihydrochloride], the melting point turned out to be 196 °C.
For `CN(CCC(=O)Nc1ncnc2[nH]cnc12)C(=O)OC(C)(C)C` [Example 1, 3-(tert-Butyloxycarbonyl-methyl-amino)-N(9H-purin-6-yl)propionamide], the melting point is 205 °C. The affinity in the data set with Human adenine receptor, expressed as Ki, was 5.47 ± 1.28 µM. The “effect on isoproterenol-induced cAMP accumulation” value at rAde1R [2] (setting [3]) was “adenine receptor agonists”. The molecule further yielded a Ki on Rat adenine receptor of 0.949 ± 0.135 µM.
As to `Cn1cnc2ncnc-2c1N` [1-methyl-adenine], the “values at the rAde1R” value on rAde1R [1] is “micromolar range”.
Turning to `CNCCC(=O)Nc1ncnc2[nH]cnc12` [Example 9, 3-Methyl-amino-N(9H-purin-6-yl)propionamide dihydrochloride], the Ki was found to be 1.83 ± 0.09 µM in the data set on Human adenine receptor and 0.292 ± 0.056 µM on Rat adenine receptor. Further, the “effect on isoproterenol-induced cAMP accumulation” value on rAde1R [2] (setting [3]) was “no significant effect”. In addition, the Kb at rAde1R [2] (calculated from shift of adenine curve by 10 μM compound 9) was 165 nM. Besides, the “effect on concentration-response curve of adenine” value at rAde1R [2] (compound 9 at 10 μM, 1321N1 cells expressing rAde1R, FIG. 5) was “shifted the concentration-response curve of adenine to the right proving that it is an antagonist”.
On to `CC(C)(C)OC(=O)NCCC(=O)Nc1ncnc2[nH]cnc12` [Example 7, 3-tert-Butyloxycarbonylamino-N(9H-purin-6-yl)propionamide], for which the melting point worked out at 191 °C. Further, the affinity with Human adenine receptor, expressed as Ki, was 0.719 ± 0.081 µM. The molecule further gave a Ki at Rat adenine receptor of 0.334 ± 0.031 µM.
`Cl.NCCC(=O)Nc1ncnc2[nH]cnc12` [Example 14, 3-Amino-N(9H-purin-6-yl)propionamide hydrochloride] gave a melting point of 204 °C. In the data set with Human adenine receptor, this molecule yielded a Ki of 0.0447 ± 0.0034 µM. Further, the “effect on isoproterenol-induced cAMP accumulation” value on rAde1R [2] (1 μM compound, 1321N1 cells expressing rAde1R) is “adenine receptor agonists”. Also, the “inhibition of isoproterenol-stimulated cAMP accumulation by different concentrations” value against rAde1R [2] (1321N1 cells expressing rAde1R, FIG. 4) is on record as “concentration-dependent inhibition”. The same molecule returned a Ki at Rat adenine receptor of 0.0215 ± 0.0056 µM.
On to `CCNCCC(=O)Nc1ncnc2[nH]cnc12` [Example 10, 3-Ethyl-amino-N(9H-purin-6-yl)propionamide dihydrochloride], for which the figures for the inhibition constant (Ki) with Human adenine receptor and at Rat adenine receptor were 1.34 ± 0.48 µM and 0.508 ± 0.163 µM, respectively. Further, the “effect on isoproterenol-induced cAMP accumulation” value on rAde1R [2] (setting [3]) is listed as “adenine receptor agonists”.
In turn, `CCCNCCC(=O)Nc1ncnc2[nH]cnc12` (as salt: hydrochloride) [Example 11, 3-Propyl-amino-N(9H-purin-6-yl)propionamide dihydrochloride] returned a melting point of 171 °C.
The molecule `CC(C)(C)OC(=O)NCCCC(=O)Nc1ncnc2[nH]cnc12` [Example 8, 4-tert-Butyloxycarbonylamino-N(9H-purin-6-yl)butyramide] returned a melting point of 223 °C. In the data set on Human adenine receptor, this molecule had a Ki of 2.68 ± 0.37 µM. At Rat adenine receptor, this molecule registered a Ki of 3.39 ± 0.56 µM.
Taken in the same sequence, the figures for `CC(C)(C)OC(=O)N(CCC(=O)Nc1ncnc2[nH]cnc12)Cc1ccccc1` [Example 5, 3-(tert-Butyloxycarbonyl-benzyl-amino)-N(9H-purin-6-yl)propionamide] were 202 °C, 42.1 ± 1.8 µM and 9.02 ± 0.55 µM.
For `Cn1cnc2ncnc(N)c21` [7-methyl-adenine], the “values at the rAde1R” value at rAde1R [1] is recorded as “micromolar range”.
Consider `CCCCCCN(CCC(=O)Nc1ncnc2[nH]cnc12)C(=O)OC(C)(C)C` [Example 4, 3-(tert-Butyloxycarbonyl-hexyl-amino)-N(9H-purin-6-yl)propionamide], for which the melting point stood at 185 °C. The molecule further registered a Ki in the data set with Human adenine receptor of 19.7 ± 0.7 µM. At Rat adenine receptor, the affinity corresponds to a Ki of 1.56 ± 0.026 µM.
Taken in the same sequence, the figures for `CC(C)(C)OC(=O)N(CCC(=O)Nc1ncnc2[nH]cnc12)CCc1ccccc1` [Example 6, 3-(tert-Butyloxycarbonyl-phenethyl-amino)-N(9H-purin-6-yl)propionamide] were 162 °C, not below 100 µM and 9.07 ± 0.8 µM.

By Ki is commonly meant the equilibrium dissociation constant of an inhibitor or competing ligand from its target. One may read the melting point as the temperature, or range, at which the solid turns liquid.
